Data published in patent US20040023972A1, “Use of substituted imidazo[1,2-a]-pyridin-, -pyrimidin-and-pyrazin-3-yl-amine derivatives in the preparation of medicaments for inhibiting NOS” (Gruenenthal GmbH, priority 2000, published 2004).
pIC50: −log10 of the molar value. Where a name gives a salt, the structure may show the parent alone.

What was measured:
[1] = target: NOS (Rattus norvegicus, UniProt P29476); assay: Citrulline assay (Bredt and Snyder); format: biochemical
Description: This assay was carried out as described by D. S. Bredt and S. H. Snyder (Proc. Natl. Acad. Sci. USA (1990), 87, 682-685).

[2] = target: T1, NO synthase (Rattus norvegicus, UniProt P29476); assay: HTS-NOS assay (NOS assay): conversion of radioactive arginine, cation-exchanger filter plate; format: biochemical
T1 construct: the supernatant was then removed by decantation and frozen in portions at −80° C; from tissue; host or cells: rat cerebellum, 20,000 g supernatant of homogenate
How it was run: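 Percent inhibition was derived by comparing remaining radioactive arginine with compound-free controls. Arginine retained on phosphate cation-exchanger filters was counted after citrulline washout, following a 5-60 min room-temperature (25 °C) reaction of labelled arginine, NADPH-containing medium and rat cerebellar homogenate supernatant.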

| pIC50 [1] | Molecule | other results |
| --- | --- | --- |
| 5.62 | Cc1ccn2c(NC3CCCCC3)c(-c3ccccc3C(F)(F)F)nc2c1 [Example 292, Cyclohexyl-[7-methyl-2-(2-trifluorO-methyl-phenyl)-imidazo[1,2-a]pyridin-3-yl]-amine; hydrochloride] |  |
| 5.04 | Cc1cc(C)n2c(NC3CCCCC3)c(-c3ccncc3)nc2c1 [Example 295, Cyclohexyl-(5,7-dimethyl-2-pyridin-4-yl-imidazo[1,2-a]pyridin-3-yl)-amine; hydrochloride] |  |
| 5.60 | Cc1cc(C)n2c(NC(C)(C)CC(C)(C)C)c(-c3ccco3)nc2c1 [Example 296, (2-Furan-2-yl-5,7-dimethyl-imidazo[1,2-a]-pyridin-3-yl)-(1,1,3,3-tetramethyl-butyl)-amine; hydrochloride] |  |
| 5.37 | Cc1ccn2c(NC(C)(C)CC(C)(C)C)c(-c3ccccc3F)nc2c1 [Example 298, [2-(2-Fluorophenyl)-7-methyl-imidazo[1,2-a]pyridin-3-yl]-(1,1,3,3-tetramethyl-butyl)-amine; hydrochloride] |  |
|  | CCc1ccn2c(Nc3ccc(F)c(Cl)c3)c(-c3cc(C)c(C)o3)nc2c1 [Example 322, (3-Chloro-4-fluorophenyl)-[2-(4,5-dimethyl-furan-2-yl)-7-ethyl-imidazo[1,2-a]pyridin-3-yl]-amine] | inhibition at 10 µM ([2]; read-out: HTS-NOS assay: % inhibition (10 μM)): 49% |
|  | [6-(acetyl-{7-methyl-2-[5-(2-nitro-phenyl)-furan-2-yl]-imidazo[1,2-a]pyridin-3-yl}-amino)-hexyl]-methylidyne-ammonium [Example 215] | HTS-NOS assay: % inhibition (10 μM) ([2]; 10 μM): 50% |
